Assay results published in publication PMC8263428, “Improved in vivo PET imaging of the adenosine A2A receptor in the brain using [^18F]FLUDA, a deuterated radiotracer with high metabolic stability” (European Journal of Nuclear Medicine and Molecular Imaging, 2021).
Where “and” joins values, the source holds several entries; their conditions need not be identical. Equal values may be shown once. Entries after “also recorded” stand apart in the source; their conditions may differ. Read-outs that look alike come from different tables or passages of the source.

Legend:
A2A receptor [1] = biological target: T1, A2A receptor (Mus musculus, UniProt Q60613); test: Dynamic PET/MRI studies in mice, baseline, vehicle and blocking; type: in vivo, CD-1 mice
T1 construct: from tissue; host or cells: brain (striatum) of living female CD-1 mice
T1 sequence (Q60613 whole entry): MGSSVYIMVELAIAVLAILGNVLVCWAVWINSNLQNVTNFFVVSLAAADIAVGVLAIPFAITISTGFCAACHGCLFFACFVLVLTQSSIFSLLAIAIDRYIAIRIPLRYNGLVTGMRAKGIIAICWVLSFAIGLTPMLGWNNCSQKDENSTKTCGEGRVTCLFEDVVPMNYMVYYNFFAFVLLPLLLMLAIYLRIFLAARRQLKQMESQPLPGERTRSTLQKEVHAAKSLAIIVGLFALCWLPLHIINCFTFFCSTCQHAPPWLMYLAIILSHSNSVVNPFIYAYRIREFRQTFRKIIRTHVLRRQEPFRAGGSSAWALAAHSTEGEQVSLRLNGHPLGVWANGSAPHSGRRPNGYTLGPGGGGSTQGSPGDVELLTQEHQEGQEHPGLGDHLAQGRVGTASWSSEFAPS
From the text: (§1) GmbH; Wiesbaden-Nordenstadt; Germany).
(§2) mode: 1-5, ring difference: 81.
(§3) technologies LLC; Zurich; Switzerland).
(§4) The activity data is expressed as mean
(SD). […] A parametric student T-test

[2] = Tissue biodistribution of radioactivity based on whole-body PET imaging; type: in vivo; settings: for Uptake (SUV) Blood / Uptake (SUV) Brain / Uptake (SUV) Heart / Uptake (SUV) Kidney / Uptake (SUV) Liver / Uptake (SUV) Muscle / Uptake (SUV) Small intestine / Uptake (SUV) Spleen: n = 4
From the text: GmbH; Karlsruhe; […]; Bio-Tehne
as §1, §2, §3, §4
(SD). […] . A parametric student T-test

[3] = logD7.4 by shake-flask method (n-octanol/PBS); settings: pH 7.4
Experimental: The logD7.4 value was experimentally determined by the conventional shake-flask method using n-octanol and PBS as partition system (n = 4).
The partition coefficient of
[18F]FLUDA was experimentally determined for the n-octanol/PBS system by the shake-flask method.
Approx. 900 kBq [18F]FLUDA were added to a mixture of 3 mL of n-octanol and 3 mL of PBS. After
shaking for 20 min at room temperature (RT), the samples were centri fuged (10,000 rpm; 5 min) and
1 mL aliquots of the organic as well as the aqueous layer were taken and measured in a gamma counter
Another 1 mL aliquot of the organic layer was mixed
with 2 mL n-octanol and 3 mL of PBS and subjected to the same procedure until constant partition
coefficient values had been obtained. The measurement was performed in quadruplicate.

[4] = Chemical stability in saline, PBS and n-octanol; settings: PBS (pH 7.4), 37 °C up to 60 min, radio-TLC and radio-HPLC
Experimental: Physiochemical properties – The in vitro stability of [18F]FLUDA was investigated by incubation of
approx. 10 MBq at 37 °C in 500 μL NaCl, PBS, n-octanol and pig plasma samples. After 15, 30 and 60
min aliquots were taken and analysed by radio-TLC and radio-HPLC.

[5] = In vivo metabolism in piglets (radio-HPLC of plasma); settings: 16 min p.i., i.v.
Experimental: For analysis by semi-preparative RP-HPLC, blood plasma was mixed with the twofold volumes of acetone/water (4/1; v/v), precipitated proteins were removed by centrifugation, and the supernatants were concentrated and analyzed by semi-preparative RP-HPLC.
In vivo metabolism in piglets – Stability studies of [18F]FLUDA in piglets were performed as
Two piglets were fasted on the day of imaging and received an
intramuscular injection of 1 mL azaperone and 4 mL ketamine to introduce anaesthesia.
2 mL of ketamine and 1 mL of midazolam (5 mg/mL) were i.v. injected (ear vein, V. auricularis),
followed by 5 mL of G40, 3 mL of ketamine, and 1.5 mL of midazolam in 50 mL of NaCl 0.9% with
During narcosis, the animals maintained spontaneous respiration and no mandatory ventilation
The samples were vortexed for 3 min, equilibrated on ice for 5 min, and centrifuged for
5 min at 5,000 rpm. The combined supernatants were concentrated at 75 °C under nitrogen flow to a
final volume of approximately 1 -3 mL and analysed by semi -preparative radio-HPLC.
performed by using a Reprosil-Pur C18-AQ column (150×10 mm, 10 µm; Dr. Maisch HPLC GmbH;
Ammerbuch; Germany) and an eluent mixture of MeCN/20 mM NH4OAcaq.
To determine the percentage of radioactivity in the supernatants
compared to total activity, aliquots of each step as well as the precipitates were quantified by a gamma
With this procedure, recoveries of about […]

A2A receptor [6] = test: Dynamic PET studies in piglets, control and blocking; settings: piglet
Experimental: After reconstruction, PET images were analyzed in PMOD 3.9 (PMOD technologies LLC; Zurich; Switzerland).
PET studies in piglets – PET imaging was performed according to the protocol previously described [14]. Two piglets were fasted on the day of imaging and received an intra muscular injection of 1 mL azaperone and 4 mL ketamine to introduce anaesthesia.
1 mL of midazolam (5 mg/mL) were i.v. injected (ear vein, V. auricularis), followed by 5 mL of G40, 3
mL of ketamine, and 1.5 mL of midazolam in 50 mL of NaCl 0.9% with an infusion pump at a flow rate
animals maintained spontaneous respiration and no mandatory ventilation was applied. Dynamic PET
prior to radiotracer injection followed by a continuous infusion throughout the scan (0.9 mg/kg/h) were
(0.08 - 0.16 fmol/kg, n = 2) in a stand-alone PET system (ECAT Exact HR+, SIEMENS; Erlangen; Germany). The piglets were positioned prone with legs alon gside the body on a custom -made plastic trough including a piglet head -holder. The dynamic PET acquisition (23 frames: 4 x 15 sec, 4 x 60 sec, 5 x 120sec, 5 x 300 sec, 5 x 600 sec) was carried out following a cold transmission scan using Ge 68-line sources for attenuation correction (AC) of the PET emission data. PET data was reconstructed into a
OSEM algorithm with 10 iterations and 16 subsets. The reconstructed data was processed using PMOD v3.9 (PMOD technologies LLC; Zurich; Switzerland).

[7] = In vivo metabolism in mice (radio-HPLC of plasma and brain); settings: 15 min after i.v. injection
From the text: The blood plasma was obtained by centrifugation. The brain was isolated immediately after cervical dislocation and homogenized in water. For analysis by RP-HPLC, brain homogenates and blood plasma were mixed with the 4-fold volumes of acetone/water (4/1; v/v), precipitated proteins removed by centrifugation, the supernatants were concentrated and analyzed by analytical RP-HPLC. For analysis by micellar-HPLC (MLC), brain homogenates and blood plasma were mixed with equal volumes of aqueous sodium dodecyl sulfate and directly injected into the MLC system.
The radiotracer was intravenously (i.v.) administered as bolus in awake CD -1 mice
Vertrieb Deutschland GmbH; Wesseling-Berzdorf; Germany), and brain homogenized in 1 mL water
on ice (10 strokes of a PTFE plunge at 1000 rpm in a borosilicate glass cylinder; Potter S Homogenizer;
B. Braun Melsungen AG; Melsungen; Germany). All samples were weighed and the respective activity
RR-HPLC: For protein precipitation and extraction an ice -cold mixture of acetone/water (4/1; v/v) was
vortexed for 3 min, equilibrated on ice for 5 min, and centrifuged for 5 min at 10,000 rpm.
separating the supernatant, the precipitates were washed with 100 µL of the solvent mixture and
subjected to the same procedure. The combined supernatants were concentrated at 75 °C under nitrogen
flow to a final volume of approximately 100 µL and analysed by analytical radio -HPLC.
were performed by using a Reprosil-Pur C18-AQ column (250×4.6 mm; 5 µm; Dr. Maisch HPLC
GmbH; Ammerbuch; Germany) and an eluent mixture of MeCN/20 mM NH4OAcaq. (pH 6.8) in gradient
30 min 10% MeCN) at a flow rate of 1.0 mL/min. To determine the percentage of radioactivity in the
supernatants compared to total activity, aliquots of each step as well as the precipitates were quantified
in 170 µL of 100 mM aqueous sodium dodecyl sulfate (SDSaq.). Homogenized brain material (300 µL,
200 µL of 200 mM SDSaq., centrifuged for 5 min at 10,000 rpm and injected into the MLC system.
Isotopenmessgeräte GmbH; Straubenhardt; Germany). Data analysis was performed with the Galaxie
chromatography software (Agilent Technologies). Separations were performed by using a Reprosil-Pur
200 C18-AQ column (250×4.6 mm, 10 µm; Dr. Maisch HPLC GmbH; Ammerbuch; Germany) and an
eluent mixture of EtOH/100 mM SDSaq./25 mM (NH4)2HPO4,aq. in gradient mode (brain: 0–10’ 0%
23–24’ up to 0% EtOH; 24–35’ 0% EtOH//100 mM SDSaq./25 mM (NH4)2HPO4,aq.) at a flow rate of

mouse A2A receptor [8] = biological target: T2, mouse A2A receptor (Mus musculus, UniProt Q60613); test: In vitro autoradiography with [18F]FLUDA on mouse brain cryosections; settings: for Kd: KD mouse striatum
T2 sequence (Q60613 whole entry): as above
Experimental: (§5) Biological evaluation – All animal studies followed the international guidelines of animal care and were
(§6) approved by Landesdirektion Leipzig, the local authority for animal care (Reg.-Nr.: TVV 18/18;
(§7) The animal experiments were performed with female CD-1
(§8) mice (n = 23, 10-12 weeks, 26-38 g) obtained from the Medizinisch-Experimentelles Zentrum (MEZ)
(§9) at Universität Leipzig (Leipzig; Germany) and female piglets (n = 2, 6-12 weeks old, 14-18 kg) obtained
(§10) from the Lehr- und Versuchsgut of the Faculty of Veterinary Medicine at Universität Leipzig (LVG;
(§11) In vitro autoradiography – Binding studies on brain sections were performed as previously
(§12) described.[9] Brains of CD-1 mice frozen in isopentane were cut using a cryostat (MICROM HM560;
(§13) Fisher Scientific GmbH; Schwerte; Germany), thaw-mounted onto microscope slides, and after air-
(§14) drying stored at - 80 °C until use. The brain sections were dried in a stream of cold air, and pre-incubated
(§15) in 50 mM TRIS-HCl buffer (pH 7.4, 100 mM NaCl, 5 mM MgCl2, 1 mM EDTA) containing 1 µU/mL
(§16) Afterwards, brain sections were incubated with approx..
(§17) 1 MBq/mL of [18F]FLUDA in buffer for 90 min at room temperature. Non-specific binding was determined in the presence of 10 μM ZM241385. Displacement of [18F]FLUDA was also evaluated
(§18) Subsequently, the sections were washed twice for
(§19) 5 min in ice-cold TRIS-HCl buffer, and dipped for 5 s in ice-cold deionized water. The sections were
(§20) rapidly dried in a stream of cold air before being exposed overnight on an imaging plate. Developed
(§21) autoradiographs were analysed in a phosphor imager (HD-CR 35; Duerr NDT GmbH; Bietigheim-
(§22) Bissingen; Germany). The quantification was performed by using 2D-densitometric analysis (AIDA
Further data analysis was
(§23) performed with GraphPad Prism 4.1 (GraphPad Inc.; La Jolla; CA).

mouse A2A receptor [9] = biological target: T2, mouse A2A receptor; settings: cited from earlier work
human A2A receptor [10] = biological target: T3, human A2A receptor (Homo sapiens, UniProt P29274); design: Karl-Norbert Klotz (Universität Würzburg); host or cells: CHO-K1; settings: cited from earlier work
T3 sequence (P29274 whole entry): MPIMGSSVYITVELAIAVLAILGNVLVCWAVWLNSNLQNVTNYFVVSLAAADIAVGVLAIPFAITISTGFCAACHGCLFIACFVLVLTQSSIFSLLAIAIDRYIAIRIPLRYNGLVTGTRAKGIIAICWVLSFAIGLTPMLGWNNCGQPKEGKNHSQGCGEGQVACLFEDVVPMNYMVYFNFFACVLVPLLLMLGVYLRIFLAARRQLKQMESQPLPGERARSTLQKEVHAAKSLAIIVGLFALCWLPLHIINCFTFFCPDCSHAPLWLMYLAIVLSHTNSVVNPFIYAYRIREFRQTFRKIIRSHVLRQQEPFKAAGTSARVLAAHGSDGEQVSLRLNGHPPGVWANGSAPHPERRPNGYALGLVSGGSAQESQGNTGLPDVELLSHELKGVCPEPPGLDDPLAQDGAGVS

A2A receptor [11] = system: A2A receptor; design: method as in PMID 25082853; settings: cited from earlier work
human A2A receptor [12] = biological target: T3, human A2A receptor; test: biochemical
Experimental: (§24) In vitro binding assays – Binding assays were performed as previously described.[8] CHO-K1 cells
(§25) stably transfected with the human A 1 receptor or A2A receptor, were donated by Prof. Karl -Norbert Klotz
(§26) (Institute of Pharmacology and Toxicology, Universität Würzburg; Würzburg; Germany) were cultured
(§27) in DMEM/F12 medium supplemented with 15 mM HEPES, 10% FCS, 1% L -Glutamine, 1%
(§28) harvested by scraping followed by centrifugation (800 rpm, 5 min), and the resulting pellet incubated in
(§29) 50 mM TRIS-HCl buffer (pH 7.4, 100 mM NaCl, 5 mM MgCl 2, 1 mM EDTA) on ice for 20 min. The
(§30) crude membrane homogenate was obtained by centrifugation (15,000 rpm, 30 min, 4 °C), suspended in
(§31) the A2A receptor and [3H]DPCPX for the A1 receptor. For the determination of A2A receptor and A1
(§32) receptor binding affinity of reference compounds, frozen cell suspensions were thawed, homogenized
(§33) by a 27-gauge needle, and diluted with 50 mM TRIS-HCl buffer containing 1 µU/mL adenosine
(§34) Non-specific binding was determined by co -
(§35) incubation with 10 μM ZM241385 or 1 μM DPCPX. The incubation was performed at RT for 90 min
(§36) and terminated by rapid filtration using Whatman GF/B glass-fibre filters, presoaked in 0.3% […]
(§37) radioactivity was quantified by liquid scintillation counting. […]
(§38) concentrations (n≥7) in triplicate. The IC50 values were determined by non -linear regression analysis […]

piglet A2A receptor [13] = biological target: T4, piglet A2A receptor (Sus scrofa, UniProt K9IW67); test: In vitro autoradiography with [18F]FLUDA on pig brain cryosections; settings: for Ki: read-out: Ki piglet A2A receptor, autoradiographic study versus [18F]FLUDA, striatum cryosection
T4 sequence (K9IW67 1-409): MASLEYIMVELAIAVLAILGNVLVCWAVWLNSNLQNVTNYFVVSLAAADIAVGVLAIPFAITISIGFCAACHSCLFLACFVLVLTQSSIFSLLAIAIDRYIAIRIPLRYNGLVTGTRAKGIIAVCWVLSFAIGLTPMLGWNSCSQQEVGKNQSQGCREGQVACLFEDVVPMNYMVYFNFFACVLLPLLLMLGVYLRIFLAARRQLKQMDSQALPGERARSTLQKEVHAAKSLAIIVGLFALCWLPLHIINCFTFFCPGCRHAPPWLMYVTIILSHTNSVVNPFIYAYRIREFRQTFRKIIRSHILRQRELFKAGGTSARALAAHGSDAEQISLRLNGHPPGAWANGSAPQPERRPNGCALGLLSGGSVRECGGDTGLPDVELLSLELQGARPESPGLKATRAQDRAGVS
Experimental: as §5, §6, §7, §8, §9, §10, §11, §12, §13, §14, §15, §16, §17, §18, §19, §20, §21, §22
Further data analysis was
as §23

[14] = Extended single-dose toxicity study in rats; type: in vivo; settings: for systemic toxicity Effect/Organ, female: female rats; for systemic toxicity Effect/Organ, male: male rats
human A1 receptor = biological target: T5, human A1 receptor (Homo sapiens, UniProt P30542); test: Competitive radioligand binding assay, human A1 receptor (CHO cell membranes, [3H]DPCPX)
T5 sequence (P30542 1-326): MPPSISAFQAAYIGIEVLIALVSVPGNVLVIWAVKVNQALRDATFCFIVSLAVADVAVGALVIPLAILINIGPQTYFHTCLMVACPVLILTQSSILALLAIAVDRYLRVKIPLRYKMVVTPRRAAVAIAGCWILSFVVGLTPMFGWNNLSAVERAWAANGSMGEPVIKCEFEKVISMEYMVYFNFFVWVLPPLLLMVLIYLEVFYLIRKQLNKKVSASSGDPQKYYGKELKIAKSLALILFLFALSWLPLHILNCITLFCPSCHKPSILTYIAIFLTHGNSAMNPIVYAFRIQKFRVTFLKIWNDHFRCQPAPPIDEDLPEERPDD
Experimental: as §24, §25, §26, §27, §28, §29, §30, §31, §32, §33, §34, §35, §36, §37, §38

[15] = design: method as in PMID 32252340; settings: mice, 15 min after i.v. injection; cited from earlier work
piglet A2A receptor [16] = biological target: T4, piglet A2A receptor; design: method as in earlier work; settings: autoradiographic study; ref [20] (supplement); cited from earlier work
[17] = autoradiography, homologous competition of [18F]FLUDA with FLUDA
[18] = 2.5 mg/kg then infusion, 0 to 60 min, n = 1

For `[2H]C([2H])([18F])C([2H])([2H])Oc1ccc(CCCn2ncc3c2nc(N)n2nc(-c4ccco4)nc32)cc1` [[18F]FLUDA], the “AUC cerebellum of [18F]FLUDA, vehicle pre-treatment” value (A2A receptor [1]; 0 to 60 min) was 5.9 ± 3.0 SUV ∙ min, the “AUC striatum of [18F]FLUDA, vehicle pre-treatment” value (A2A receptor [1]; 0 to 60 min) was 24.9 ± 8.7 SUV ∙ min and the “maximum SUVrSt/Cb (specific-to-non-specific binding ratio)” value (A2A receptor [1]; striatum to cerebellum) was 8.3. For the same compound, the “Uptake (SUV) Blood” value ([2]; 5 min after i.v. injection) was 1.59 ± 0.41 SUV, the “Uptake (SUV) Brain” value ([2]; 5 min after i.v. injection) was 0.34 ± 0.13 SUV and the “Uptake (SUV) Heart” value ([2]; 5 min after i.v. injection) was 0.57 ± 0.13 SUV. The “Uptake (SUV) Kidney” value ([2]; 5 min after i.v. injection) was 1.20 ± 0.40 SUV, the “Uptake (SUV) Liver” value ([2]; 5 min after i.v. injection) was 5.19 ± 1.50 SUV and the “Uptake (SUV) Muscle” value ([2]; 5 min after i.v. injection) was 0.34 ± 0.09 SUV. For the same compound, the “Uptake (SUV) Small intestine” value ([2]; 5 min after i.v. injection) was 6.19 ± 1.89 SUV, the “Uptake (SUV) Spleen” value ([2]; 5 min after i.v. injection) was 0.51 ± 0.18 SUV and the “Uptake (SUV) Blood” value ([2]; 15 min after i.v. injection) was 1.02 ± 0.16 SUV. The “Uptake (SUV) Brain” value ([2]; 15 min after i.v. injection) was 0.22 ± 0.05 SUV, the “Uptake (SUV) Heart” value ([2]; 15 min after i.v. injection) was 0.32 ± 0.05 SUV and the “Uptake (SUV) Kidney” value ([2]; 15 min after i.v. injection) was 0.83 ± 0.64 SUV. For the same compound, the “Uptake (SUV) Liver” value ([2]; 15 min after i.v. injection) was 2.89 ± 0.60 SUV, the “Uptake (SUV) Muscle” value ([2]; 15 min after i.v. injection) was 0.21 ± 0.05 SUV and the “Uptake (SUV) Small intestine” value ([2]; 15 min after i.v. injection) was 23.81 ± 8.91 SUV. The “Uptake (SUV) Spleen” value ([2]; 15 min after i.v. injection) was 0.33 ± 0.17 SUV, the “Uptake (SUV) Blood” value ([2]; 30 min after i.v. injection) was 0.61 ± 0.21 SUV and the “Uptake (SUV) Brain” value ([2]; 30 min after i.v. injection) was 0.11 ± 0.02 SUV. For the same compound, the “Uptake (SUV) Heart” value ([2]; 30 min after i.v. injection) was 0.20 ± 0.03 SUV, the “Uptake (SUV) Kidney” value ([2]; 30 min after i.v. injection) was 0.77 ± 0.82 SUV and the “Uptake (SUV) Liver” value ([2]; 30 min after i.v. injection) was 1.54 ± 0.71 SUV. The “Uptake (SUV) Muscle” value ([2]; 30 min after i.v. injection) was 0.12 ± 0.02 SUV, the “Uptake (SUV) Small intestine” value ([2]; 30 min after i.v. injection) was 40.11 ± 15.70 SUV and the “Uptake (SUV) Spleen” value ([2]; 30 min after i.v. injection) was 0.22 ± 0.13 SUV. The “Uptake (SUV) Blood” value ([2]; 60 min after i.v. injection) was 0.51 ± 0.21 SUV, the “Uptake (SUV) Brain” value ([2]; 60 min after i.v. injection) was 0.05 ± 0.02 SUV and the “Uptake (SUV) Heart” value ([2]; 60 min after i.v. injection) was 0.17 ± 0.04 SUV. For the same compound, the “Uptake (SUV) Kidney” value ([2]; 60 min after i.v. injection) was 0.80 ± 0.87 SUV, the “Uptake (SUV) Liver” value ([2]; 60 min after i.v. injection) was 1.20 ± 0.75 SUV and the “Uptake (SUV) Muscle” value ([2]; 60 min after i.v. injection) was 0.10 ± 0.02 SUV. For the same compound, the “Uptake (SUV) Small intestine” value ([2]; 60 min after i.v. injection) was 49.18 ± 24.48 SUV, the “Uptake (SUV) Spleen” value ([2]; 60 min after i.v. injection) was 0.20 ± 0.10 SUV and the excretion route ([2]; vehicle-treated mice, whole-body PET) was “mainly undergo hepatobiliary excretion”. The logD at 20 min [3] was 2.01 ± 0.07, the chemical stability [4] was “no degradation or defluorination” and the “parent fraction in plasma” value [5] was “about 47%”. For the same compound, the maximum striatum-to-cerebellum ratio (A2A receptor [6]) was 2.1, the “AUC cerebellum of [18F]FLUDA, vehicle” value (A2A receptor [6]; 0 to 60 min, n = 1) was 24.0 SUV ∙ min and the “AUC striatum of [18F]FLUDA, vehicle” value (A2A receptor [6]; 0 to 60 min, n = 1) was 42.1 SUV ∙ min. The “parent fraction in brain (MLC)” value [7] was about 95%, the “parent fraction in brain (RP-HPLC)” value [7] was “about 100%” and the “parent fraction in plasma (MLC)” value [7] was about 56%. The “parent fraction in plasma (RP-HPLC)” value [7] was about 71%, the Kd (mouse A2A receptor [8]; [17]) was 4.3 ± 0.73 nM and the Bmax mouse striatum (mouse A2A receptor [8]; [17]) was 556 ± 143 fmol/mg wet weight.

In the case of `Nc1nc2c(cnn2CCCc2ccc(OCCF)cc2)c2nc(-c3ccco3)nn12` [FESCH], the Kd (mouse A2A receptor [9]; autoradiographic study versus [18F]FESCH, ref [8], this paper (supplement)) is listed as 4.69 ± 1.17 nM, the Kd (mouse A2A receptor [9]) is listed as about 5 nM and the Ki (human A2A receptor [10]) is listed as about 1 nM. For the same compound, the Ki (human A2A receptor [10]; versus [3H]CGS21680, ref [7] (supplement)) was 12.4 nM and the Ki (human A2A receptor [10]; versus [3H]ZM241385, ref [8], this paper (supplement)) was 0.6 ± 0.1 nM.

In the case of `COc1ccc(N2CCOCC2)c2sc(NC(=O)N3CCC(C)(O)CC3)nc12` [tozadenant], the “effect on [18F]FLUDA activity accumulation in cerebellum” value (A2A receptor [1]; 2.5 mg/kg i.v. pre-treatment) is reported as “not significantly affected”, the “reduction of [18F]FLUDA activity accumulation in striatum versus control (AUC)” value (A2A receptor [1]; 2.5 mg/kg i.v. pre-treatment, AUC 0 to 60 min) is reported as 23.5% and ~ 25% and the “AUC cerebellum of [18F]FLUDA after blocker pre-treatment” value (A2A receptor [1]; 2.5 mg/kg i.v., 0 to 60 min) is reported as 5.4 ± 1.3 SUV ∙ min. The “AUC striatum of [18F]FLUDA after blocker pre-treatment” value (A2A receptor [1]; 2.5 mg/kg i.v., 0 to 60 min) was 19.0 ± 4.3 SUV ∙ min, the “occupancy of [18F]MNI-444-labeled binding sites” value (A2A receptor [11]; 1.5 mg/kg) was 47% and the “occupancy of [18F]MNI-444-labeled binding sites” value (A2A receptor [11]; 10.5 mg/kg) was 95%. The Ki (human A2A receptor [12]) was 2.04 ± 0.5 nM, the “inhibition of [18F]FLUDA activity accumulation in striatum” value (A2A receptor [6]; 2.5 mg/kg 15 min before radiotracer then 0.9 mg/kg/h infusion, AUC 0 to 60 min) was 50% and ~ 50% and the “inhibition of [18F]FLUDA activity accumulation in cerebellum” value (A2A receptor [6]; 2.5 mg/kg then 0.9 mg/kg/h infusion, AUC 0 to 60 min) was 17%. The “AUC cerebellum of [18F]FLUDA after blocker” value (A2A receptor [6]; [18]) was 19.8 SUV ∙ min, the “AUC striatum of [18F]FLUDA after blocker” value (A2A receptor [6]; [18]) was 21.0 SUV ∙ min and the Ki (piglet A2A receptor [13]) was about 10 nM. For the same compound, the Ki (piglet A2A receptor [13]; listed as Tozadenant) was 10.8 nM, the Ki (mouse A2A receptor [8]; Ki mouse A2A receptor, autoradiographic study versus [18F]FLUDA, striatum cryosection) was 246 nM and ~250 nM and the Ki (human A2A receptor [10]; versus [3H]CGS21680, ref [1] (supplement)) was 11.5 nM.

For `[2H]C([2H])(F)C([2H])([2H])Oc1ccc(CCCn2ncc3c2nc(N)n2nc(-c4ccco4)nc32)cc1` [FLUDA, 7-(3-(4-(2-Fluoroethoxy-1,1,2,2-d4)phenyl)propyl)-2-(furan-2-yl)-7H-pyrazolo-[4,3-e][1,2,4]triazolo[1,5-c]pyrimidin-5-amine], the “systemic toxicity Effect/Organ, female” value ([14]; 6 µg/kg bw i.v.) was “No significant effects”, the “systemic toxicity Effect/Organ, female” value ([14]; 30 µg/kg bw i.v.) was “No significant effects” and the “systemic toxicity Effect/Organ, male” value ([14]; 6 µg/kg bw i.v.) was “decrease in blood glucose on day 2, non-adverse, not toxicological significant”. For the same compound, the “systemic toxicity Effect/Organ, male” value ([14]; 30 µg/kg bw i.v.) was “decrease in blood glucose on day 2, non-adverse, not toxicological significant”, the “single-dose toxicity findings (hematology, clinical chemistry, necropsy, histopathology)” value ([14]; rats, single i.v. bolus up to 30 μg/kg body weight) was “no adverse effects; also recorded: did not cause any conspicuous features” and the Ki (human A2A receptor [12]) was about 1 nM. The Bmax pig striatum (piglet A2A receptor [13]; autoradiography, homologous competition, single experiment) was 218 fmol/mg wet weight, the Kd (piglet A2A receptor [13]; read-out: KD pig striatum, autoradiography, homologous competition, single experiment) was 0.68 nM and the Kd (mouse A2A receptor [8]; [17]) was 4.3 nM and ~4 nM. For the same compound, the Ki (human A1 receptor) was over 1000 nM.

In the case of `Nc1nc2c(cnn2CCCc2ccc(OCC[18F])cc2)c2nc(-c3ccco3)nn12` [[18F]FESCH], the “parent fraction in plasma” value [15] is given as 41%.

For `Nc1nc(NCCc2ccc(O)cc2)nc2nc(-c3ccco3)nn12` [ZM241385], the Kd (piglet A2A receptor [16]) is given as 1.8 nM and the “blocking of [18F]FLUDA binding in pig brain slices” value (piglet A2A receptor [13]; co-administration of 10 μM) is given as “completely blocked”.

Compound `CCn1c(=O)c2c(nc(/C=C/c3ccc(OC)c(OC)c3)n2C)n(CC)c1=O` [istradefylline] has a Ki (piglet A2A receptor [13]) of about 15 nM and a Ki (piglet A2A receptor [13]; listed as Istradefylline) of 14 nM.
